Key:
[1] = test system: purified anti-8,e,DNP-Lys8 antibody; assay type: binding, guinea pig; details: cross-reaction of anti-8,ε,DNP-Lys8 antibody with α,DNP-oligolysines
[2] = test system: purified guinea pig anti-a,DNP-Lys7-10 antibody; details: as measured by binding of DNP-OH or DNP-EACA; fluorescence quenching

Row | Structure (SMILES) | contribution to the binding energy of α,DNP-oligolysines [1] [%] | contribution of the haptenic group to the total binding energy of a,DNP-Lys9 [2]
1 | O=[N+]([O-])c1ccc(O)c([N+](=O)[O-])c1 [DNP-OH, 2,4,dinitrophenol] | 93 | about 70%
2 | O=C(O)CCCCCNc1ccc([N+](=O)[O-])cc1[N+](=O)[O-] [DNP-EACA] | – | about 70%

Source: article PMC2138933 (The Journal of Experimental Medicine, 1971)
